Experimental data as given in patent US9133230B2, “Hydrazone derivatives having potent antitumor activity toward multi-drug resistant tumor cells” (THE UNITED STATES OF AMERICA AS REPRESENTED BY THE …, priority 2011, dated 2015).

Tests used:
Type in all cases: cell-based
[1] = test system: human colorectal carcinoma HT29; assay: Western blot of signal transduction pathways in HT29 cells; details: HT29, IC50 dose
[2] = test system: human colon carcinoma HT-29; assay: MTS cytotoxicity assay, HT-29; details: Homo sapiens, HT-29, 48 h incubation
Experimental: (§1) In order to obtain information about the growth-inhibiting action of hydrazones reported in the present invention on tumor cells, growth inhibition was assessed for the following human tumor cell lines: human myelogenous leukemia K562, human cervical adenocarcinoma HeLa, human colon adenocarcinoma Caco-2, human colon carcinoma HT-29, human colon carcinoma HCT-15, and human breast carcinoma MCF-7.
(§2) The K562, HeLa, HT-29, HCT-15, Caco-2, and MCF-7 cell lines were obtained from the American type Culture Collection (ATCC, Manassas, Va.). K562 cells were maintained in RPMI 1640 medium (Gibco/Life Technologies, Gaithersburg, Md.) containing 10% heat-inactivated fetal bovine serum (FBS) (Atlanta Biologicals, Atlanta, Ga.) and 10000 U/L penicillin and 50 mg/L streptomycin. HeLa, HT-29, HCT-15, Caco-2 and MCF-7 cells were maintained in MEM with Earl's balanced salts, 10% FBS, penicillin, and streptomycin as above. Logarithmically growing HT-29, Caco-2, and MCF-7 cells were incubated with 0.05% trypsin containing 1 mM EDTA at 37° C. for about 5 min until cells were nonadherent and formed a single cell suspension. Trypsin activity was neutralized by adding 20-fold excess of the serum-containing medium. Cells were cultured at 37° C. in an atmosphere of air and 5% CO2.
(§3) Cytotoxicity assays were conducted by tetrazolium reduction of 3-(4,5-dimethylthiazol-2-yl)-5-(3-carboxymethoxyphenyl)-2-(4-sulfophenyl)-2H-tetrazolium (MTS) with N-methylphenazonium methyl sulfate (PMS) (CellTiter Assay, Promega, Madison, Wis.). Logarithmically growing cells were plated in 0.1 mL aliquots in 96-well microtiter plates. Cells were plated at an initial density of about 5000 cells/mL and allowed to acclimatize for 24 h. Cell suspensions were treated with various dilutions of compounds in triplicate, mixed well, and allowed to incubate for 48 h at 37° C. in an atmosphere of air and 5% CO2. To the cell suspension was added 20 μL of tetrazolium reagent, the mixture was incubated for 2 h at 37° C. in an atmosphere of air and 5% CO2, and absorbance at 490 nm was read by microplate reader. Control plates with serial dilutions of cell types were counted as a control for the assay. In all cases, controls indicated a linear response versus cell number, R^2≧0.99.

[3] = test system: renal cancer cell lines; assay: NCI 60 human tumor cell line screen, renal; details: Homo sapiens, arithmetic mean of two to nine cancer cell lines, read-out: Inhibitory concentration GI50, renal
Source text: (§4) Selected compounds were submitted for testing in the organ-specific panel of human tumor cell lines at the National Cancer Institute, Bethesda, Md. This screen utilized 60 human tumor cell lines, representing leukemia, melanoma, and cancers of the lung, colon, brain, ovary, kidney, prostate, and breast (Boyd, M. R., “Status of the NCl preclinical antitumor drug discovery screen”. In Principles and practice of oncology updates; De Vita, V. T., Jr. Hellman, S., Rosenberg, S. A., Eds.; Lippincott: Philadelphia, Pa., 1989; Vol. 3, pp 1-12).
(§5) The MG MID value is the average of the GI50 values for all the cell lines tested for drug concentrations in the range of 10^−4-10^−8 M (See website domain: dtp.nci.nih.gov/dtp).

[4] = test system: human myelogenous leukemia K562; assay: MTS cytotoxicity assay, K562; details: Homo sapiens, K562, 48 h incubation
Experimental: as §1, §2, §3

[5] = test system: melanoma cell lines; assay: NCI 60 human tumor cell line screen, melanoma; details: Homo sapiens, arithmetic mean of two to nine cancer cell lines, read-out: Inhibitory concentration GI50, melanoma
Source text: as §4, §5

[6] = test system: leukemia cell lines; assay: NCI 60 human tumor cell line screen, leukemia; details: Homo sapiens, arithmetic mean of two to nine cancer cell lines, read-out: Inhibitory concentration GI50, leukemia
Source text: as §4, §5

[7] = test system: colon cancer cell lines; assay: NCI 60 human tumor cell line screen, colon; details: Homo sapiens, arithmetic mean of two to nine cancer cell lines, read-out: Inhibitory concentration GI50, colon
Source text: as §4, §5

[8] = test system: human colon carcinoma HCT-15; assay: MTS cytotoxicity assay, HCT-15; details: Homo sapiens, HCT-15, 48 h incubation
Experimental: as §1, §2, §3

[9] = test system: human colon adenocarcinoma Caco-2; assay: MTS cytotoxicity assay, Caco-2; details: Homo sapiens, Caco-2, 48 h incubation
Experimental: as §1, §2, §3

[10] = test system: prostate cancer cell lines; assay: NCI 60 human tumor cell line screen, prostate; details: Homo sapiens, arithmetic mean of two to nine cancer cell lines, read-out: Inhibitory concentration GI50, prostrate
Source text: as §4, §5

SMILES: C(=NNc1ncnc2[nH]cnc12)c1ccccn1 [I-18, 6-(2-(Pyridin-2-ylmethylene)hydrazinyl)-9H-purine]
- Activation of NFkB (p50) [1]: observed
- GI50 [2]: 3500 nM
- GI50 [3]: 1480 nM
- GI50 [4]: 2300 nM
- GI50 [5]: 753 nM
- GI50 [6]: 966 nM
- GI50 [7]: 1370 nM
- GI50 [8]: 2000 nM
- GI50 [9]: 2200 nM
- GI50 [10]: 598 nM
